From PubChem BioAssay (NCI)
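Abbreviation: GI50, concentration required for 50% inhibition of growth. Definition used: TGI = concentration required for complete inhibition of growth.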

How the values were obtained:
Experiment in all cases: inhibition of tumour cell growth, NCI panel, 384-well format
786-0 renal = tested on: 786-0 renal
A498 renal = tested on: A498 renal
A549 NSCLC = tested on: A549 NSCLC
ACHN renal = tested on: ACHN renal
BT-549 breast = tested on: BT-549 breast
CAKI-1 renal = tested on: CAKI-1 renal
DU-145 prostate = tested on: DU-145 prostate
EKVX NSCLC = tested on: EKVX NSCLC
HCC-2998 colon = tested on: HCC-2998 colon
HCT-116 colon = tested on: HCT-116 colon
HCT-15 colon = tested on: HCT-15 colon
HL-60(TB) leukemia = tested on: HL-60(TB) leukemia
HOP-62 NSCLC = tested on: HOP-62 NSCLC
HOP-92 NSCLC = tested on: HOP-92 NSCLC
HT29 colon = tested on: HT29 colon
IGROV1 ovarian = tested on: IGROV1 ovarian
KM12 colon = tested on: KM12 colon
LOX IMVI melanoma = tested on: LOX IMVI melanoma
M14 melanoma = tested on: M14 melanoma
MALME-3M melanoma = tested on: MALME-3M melanoma
MCF7 breast = tested on: MCF7 breast
MDA-MB-468 breast = tested on: MDA-MB-468 breast
NCI-H226 lung = tested on: NCI-H226 lung
OVCAR-4 ovarian = tested on: OVCAR-4 ovarian
PC-3 prostate = tested on: PC-3 prostate
RPMI-8226 leukemia = tested on: RPMI-8226 leukemia
RXF 393 renal = tested on: RXF 393 renal
SF-268 CNS = tested on: SF-268 CNS
SK-MEL-28 melanoma = tested on: SK-MEL-28 melanoma
SK-MEL-5 melanoma = tested on: SK-MEL-5 melanoma
SNB-19 CNS = tested on: SNB-19 CNS
SNB-75 CNS = tested on: SNB-75 CNS
SW-620 colon = tested on: SW-620 colon
T-47D breast = tested on: T-47D breast
TK-10 renal = tested on: TK-10 renal
U251 glioblastoma = tested on: U251 glioblastoma
UACC-257 melanoma = tested on: UACC-257 melanoma
UACC-62 melanoma = tested on: UACC-62 melanoma
UO-31 renal = tested on: UO-31 renal

CC(=O)c1nc(-c2ccc(C[C@@H](CNC(=O)CN(C)C)NC(=O)c3ccc(OC(C)C)c(Cl)c3)cc2)cn1C gave a GI50 (786-0 renal) of 0.0184 µM, a TGI (786-0 renal) of 14 µM and a GI50 (A498 renal) of 0.039 µM. For the same molecule, the TGI (A498 renal) was 19.4 µM, the GI50 (A549 NSCLC) was 0.0367 µM and the TGI (A549 NSCLC) was 16.5 µM. For the same molecule, the GI50 (ACHN renal) was 11 µM, the TGI (ACHN renal) was 23.2 µM and the GI50 (BT-549 breast) was 0.0258 µM. For the same molecule, the TGI (BT-549 breast) was 13.6 µM, the GI50 (CAKI-1 renal) was 0.0454 µM and the TGI (CAKI-1 renal) was 16.5 µM. It also gave a GI50 (DU-145 prostate) of 0.0169 µM, a TGI (DU-145 prostate) of 15.9 µM and a GI50 (EKVX NSCLC) of 0.0241 µM. It also gave a TGI (EKVX NSCLC) of 17.3 µM, a GI50 (HCC-2998 colon) of 0.0181 µM and a TGI (HCC-2998 colon) of 6.86 µM. The GI50 (HCT-116 colon) was 0.0341 µM, the TGI (HCT-116 colon) was 15.1 µM and the GI50 (HCT-15 colon) was 0.0471 µM. For the same molecule, the TGI (HCT-15 colon) was 16.1 µM, the GI50 (HL-60(TB) leukemia) was 0.0149 µM and the TGI (HL-60(TB) leukemia) was 0.029 µM. For the same molecule, the GI50 (HOP-62 NSCLC) was 0.0414 µM, the TGI (HOP-62 NSCLC) was 20.7 µM and the GI50 (HOP-92 NSCLC) was 1.82 µM. It also gave a TGI (HOP-92 NSCLC) of 18.2 µM, a GI50 (HT29 colon) of 0.013 µM and a TGI (HT29 colon) of 0.06 µM. It also gave a GI50 (IGROV1 ovarian) of 0.0541 µM, a TGI (IGROV1 ovarian) of 20.4 µM and a GI50 (KM12 colon) of 0.0139 µM. It also gave a TGI (KM12 colon) of 19.8 µM, a GI50 (LOX IMVI melanoma) of 0.0628 µM and a TGI (LOX IMVI melanoma) of 18 µM. It also gave a GI50 (M14 melanoma) of 0.0174 µM, a TGI (M14 melanoma) of 0.0515 µM and a GI50 (MALME-3M melanoma) of 0.0613 µM. For the same molecule, the TGI (MALME-3M melanoma) was 1.7 µM, the GI50 (MCF7 breast) was 0.0601 µM and the TGI (MCF7 breast) was 18.2 µM. For the same molecule, the TGI (MDA-MB-468 breast) was 0.0295 µM, the GI50 (NCI-H226 lung) was 12.2 µM and the TGI (NCI-H226 lung) was 24.6 µM. For the same molecule, the GI50 (OVCAR-4 ovarian) was 12.5 µM, the TGI (OVCAR-4 ovarian) was 25.1 µM and the GI50 (PC-3 prostate) was 0.0314 µM. It also gave a TGI (PC-3 prostate) of 19.1 µM, a GI50 (RPMI-8226 leukemia) of 0.0213 µM and a TGI (RPMI-8226 leukemia) of 0.0429 µM. The GI50 (RXF 393 renal) was 0.0192 µM, the TGI (RXF 393 renal) was 10.9 µM and the GI50 (SF-268 CNS) was 0.0123 µM. The TGI (SF-268 CNS) was 0.0439 µM, the GI50 (SK-MEL-28 melanoma) was 1.13 µM and the TGI (SK-MEL-28 melanoma) was 7.5 µM. The GI50 (SK-MEL-5 melanoma) was 0.0254 µM, the TGI (SK-MEL-5 melanoma) was 1.18 µM and the GI50 (SNB-19 CNS) was 0.0145 µM. For the same molecule, the TGI (SNB-19 CNS) was 21.5 µM, the GI50 (SNB-75 CNS) was 0.0558 µM and the TGI (SNB-75 CNS) was 15.8 µM. It also gave a GI50 (SW-620 colon) of 0.0473 µM, a TGI (SW-620 colon) of 20.6 µM and a GI50 (T-47D breast) of 0.0227 µM. The TGI (T-47D breast) was 13.1 µM, the GI50 (TK-10 renal) was 10.2 µM and the TGI (TK-10 renal) was 21.9 µM. The GI50 (U251 glioblastoma) was 0.0162 µM, the TGI (U251 glioblastoma) was 16.9 µM and the GI50 (UACC-257 melanoma) was 0.0683 µM. The TGI (UACC-257 melanoma) was 1.76 µM, the GI50 (UACC-62 melanoma) was 0.0161 µM and the TGI (UACC-62 melanoma) was 17.9 µM. For the same molecule, the GI50 (UO-31 renal) was 0.823 µM and the TGI (UO-31 renal) was 20.9 µM.
